Laboratory results reported in article PMC8231170, “Biphenylalkoxyamine Derivatives–Histamine H3 Receptor Ligands with Butyrylcholinesterase Inhibitory Activity” (Molecules, 2021).
Where a name gives a salt, the structure may show the parent alone. Read-outs that look alike come from different tables or passages of the source.

Key:
[1] = system: mouse model of scopolamine-induced memory impairments; experiment: step-through Passive Avoidance Task; type: in vivo; settings: mice; for latency times, acquisition trial: i.p.
Experimental: This procedure was created for studying short-term memory as well as long-term memory. The paradigm requires the rodents to behave contrary to their innate preference for dark areas and for avoiding bright ones.
The experiments were carried out on adult male Albino Swiss mice (CD-1, 18–25 g). […] Experimental groups consisted of 6–12 animals, all the animals were used only once and they were killed by cervical dislocation immediately after the assay. Behavioral measures were scored by trained observers, which were blind to experimental conditions. Treatment of laboratory animals in the present study was in full accordance with the respective Polish regulations.
Control animals (negative control) were given an appropriate amount of vehicle (1% aqueous solution of Tween 80; i.p.) 30 min before the test.
The task was performed according to the method described previously. Briefly, the test was conducted in the apparatus with two compartments (LE872, Bioseb, France). The illuminated white compartment (20 cm × 21 cm × 20 cm, 1000 lx) was separated by an automated sliding gate with the smaller dark compartment (7.3 cm × 7.5 cm × 14 cm, 10 lx) equipped with an electric grid floor. For acquisition session, mice were first placed individually in the white compartment and after 30 s the gate to the smaller compartment was opened. Immediately after entering into the dark compartment, the gate was closed and the mouse was punished by an unavoidable electric foot shock (0.8 mA for 2 s). […] Next day (24 h later), the pretested animals were placed again into the bright compartment. […] The latency time to cross through the gate between the compartments was measured.

human MAO B = molecular target: T1, human MAO B (Homo sapiens, UniProt P27338); experiment: fluorometric Monoamine Oxidase assay; type: biochemical; settings: at 1 μM; read-out: hMAO B %Inh. (converted)
T1 construct: purchased Sigma Aldrich M7441
T1 sequence (P27338 1-520): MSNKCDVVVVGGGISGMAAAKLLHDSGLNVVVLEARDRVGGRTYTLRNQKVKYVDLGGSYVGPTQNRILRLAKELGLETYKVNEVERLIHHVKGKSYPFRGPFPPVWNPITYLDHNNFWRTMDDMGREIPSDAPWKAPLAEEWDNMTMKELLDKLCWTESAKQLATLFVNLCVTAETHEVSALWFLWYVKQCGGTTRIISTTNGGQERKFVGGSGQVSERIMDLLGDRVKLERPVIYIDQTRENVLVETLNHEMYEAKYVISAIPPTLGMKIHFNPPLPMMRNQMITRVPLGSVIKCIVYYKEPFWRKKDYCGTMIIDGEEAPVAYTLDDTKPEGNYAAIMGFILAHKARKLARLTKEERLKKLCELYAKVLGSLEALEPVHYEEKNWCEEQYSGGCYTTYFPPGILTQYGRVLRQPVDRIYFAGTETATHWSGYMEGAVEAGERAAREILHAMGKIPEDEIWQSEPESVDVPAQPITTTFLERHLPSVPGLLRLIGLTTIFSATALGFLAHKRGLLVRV
Experimental: Inhibition of human MAO B (hMAO B) was evaluated using a fluorometric Monoamine Oxidase assay as we described previously.
Inhibition of hMAO B was evaluated using fluorometric Monoamine Oxidase assay as described by Łażewska et al.. Recombinant MAO B was purchased from Sigma Aldrich (M7441). […] The assay was carried out in 96-well plate. Tested compounds dissolved in DMSO (1 μM) were added to wells that contained 98 µL of enzyme dilution (1 µg/well) in phosphate buffer (50 mM, pH 7.4). […] An enzymatic reaction started following addition of para-tyramine solution (200 μM). […] Each experiment was performed in duplicate.

AChE from electric eel [2] = molecular target: T2, AChE from electric eel (Electrophorus electricus, UniProt O42275); experiment: eeAChE inhibition, Ellman's method; type: biochemical; settings: for inhibition at 10 µM: read-out: eeAChE % Inh.; for IC50: AChE from electric eel, read-out: eeAChE IC50 Mean ± SEM
T2 construct: AChE was obtained from electric eel and BuChE from equine serum; purchased Sigma Aldrich; host or cells: electric eel (natural source)
Experimental: The inhibitory activities of the tested compounds against cholinesterases were evaluated by Ellman’s method. AChE was obtained from electric eel and BuChE from equine serum. Donepezil and rivastigmine were used as reference compounds. […]. Inhibitory activities of the tested compounds against cholinesterases were measured using a spectrophotometric method modified for 96-well microplates as described recently.
[…]. First, all compounds were screened at the concentration of 10 μM. The changes in absorbance were measured at 412 nm, using a microplate reader (EnSpire Multimode; PerkinElmer, Waltham, MA, USA). Then, the percent of inhibition of tested enzymes for each compound was calculated. […] Each concentration was measured in triplicate. All calculations were made using nonlinear regression GraphPad Prism 5 (GraphPad Software, San Diego, CA, USA).

BuChE from equine serum [3] = molecular target: T3, BuChE from equine serum (Equus caballus, UniProt P81908); experiment: eqBuChE inhibition, Ellman's method; type: biochemical; settings: BuChE from equine serum; read-out: eqBuChE IC50 Mean ± SEM
T3 construct: AChE was obtained from electric eel and BuChE from equine serum; purchased Sigma Aldrich; host or cells: equine serum (natural source)
Experimental: The inhibitory activities of the tested compounds against cholinesterases were evaluated by Ellman’s method. AChE was obtained from electric eel and BuChE from equine serum. […] Inhibitory activities of the tested compounds against cholinesterases were measured using a spectrophotometric method modified for 96-well microplates as described recently.
First, all compounds were screened at the concentration of 10 μM. […] Then, the percent of inhibition of tested enzymes for each compound was calculated. […] Each concentration was measured in triplicate. All calculations were made using nonlinear regression GraphPad Prism 5 (GraphPad Software, San Diego, CA, USA).

[4] = molecular target: T4, human histamine H3 receptor (Homo sapiens, UniProt Q9Y5N1); experiment: hH3R radioligand binding assay ([3H]Nα-methylhistamine)
T4 construct: expressed in transfected cells; host or cells: HEK293
Experimental: Affinity to human histamine H3 receptor stably expressed in HEK293 cells was evaluated in a radioligand binding assay with N^α-methylhistamine according to the previous procedure. […] The bound radioligand was separated from the free radioligand by filtration through GF/B filters (pretreated with 0.3% (m/v) polyethylenimine) using Inotech cell harvester (Dottikin, Switzerland). Unbound radioligand was removed by three washing steps with ice-cold water. The radioactivity was determined in a liquid scintillation counter (Perkin Elmer Trilux Betacounter, Germany). Scintillation data corrected for non-specific binding were analyzed using GraphPad Prism (V6.01, San Diego, CA, USA) software. Ki values were calculated from IC50 values (from at least three experiments, performed in duplicates) according to the Cheng–Prusoff equation [29].

[5] = molecular target: human butyrylcholineserase; settings: read-out: hBuChE IC50; cited from earlier work
AChE from electric eel [6] = molecular target: T2, AChE from electric eel; settings: cited from earlier work
BuChE from equine serum [7] = molecular target: T3, BuChE from equine serum; settings: read-out: eqBuChE IC50 Mean ± SEM; cited from earlier work

T2 sequence (O42275 24-633): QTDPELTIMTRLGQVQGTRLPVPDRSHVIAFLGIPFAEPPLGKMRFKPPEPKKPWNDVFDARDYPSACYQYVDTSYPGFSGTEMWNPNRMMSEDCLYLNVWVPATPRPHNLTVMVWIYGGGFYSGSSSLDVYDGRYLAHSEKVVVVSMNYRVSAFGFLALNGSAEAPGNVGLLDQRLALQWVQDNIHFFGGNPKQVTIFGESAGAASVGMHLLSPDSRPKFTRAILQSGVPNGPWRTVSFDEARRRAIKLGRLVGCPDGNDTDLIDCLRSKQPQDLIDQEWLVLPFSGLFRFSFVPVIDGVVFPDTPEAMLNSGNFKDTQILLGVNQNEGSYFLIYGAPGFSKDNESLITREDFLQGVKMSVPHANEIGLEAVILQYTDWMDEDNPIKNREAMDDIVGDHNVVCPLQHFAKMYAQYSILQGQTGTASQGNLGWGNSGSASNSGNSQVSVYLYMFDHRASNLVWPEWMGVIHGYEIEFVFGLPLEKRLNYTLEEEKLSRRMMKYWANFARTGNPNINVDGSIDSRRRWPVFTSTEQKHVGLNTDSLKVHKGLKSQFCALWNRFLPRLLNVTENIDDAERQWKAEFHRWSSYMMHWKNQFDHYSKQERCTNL
T4 sequence (Q9Y5N1 whole entry): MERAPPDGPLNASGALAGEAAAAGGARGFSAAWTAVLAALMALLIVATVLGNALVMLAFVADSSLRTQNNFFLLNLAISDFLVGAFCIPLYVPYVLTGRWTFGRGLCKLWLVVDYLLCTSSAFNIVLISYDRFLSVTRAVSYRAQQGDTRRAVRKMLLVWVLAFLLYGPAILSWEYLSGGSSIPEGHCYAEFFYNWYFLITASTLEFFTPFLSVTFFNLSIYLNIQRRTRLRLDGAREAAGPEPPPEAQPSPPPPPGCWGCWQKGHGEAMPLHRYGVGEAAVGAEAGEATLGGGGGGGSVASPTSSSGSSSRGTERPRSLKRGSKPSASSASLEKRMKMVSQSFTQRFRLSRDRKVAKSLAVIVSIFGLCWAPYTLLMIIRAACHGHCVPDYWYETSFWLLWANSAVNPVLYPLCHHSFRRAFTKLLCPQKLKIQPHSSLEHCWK
T3 sequence (P81908 whole entry): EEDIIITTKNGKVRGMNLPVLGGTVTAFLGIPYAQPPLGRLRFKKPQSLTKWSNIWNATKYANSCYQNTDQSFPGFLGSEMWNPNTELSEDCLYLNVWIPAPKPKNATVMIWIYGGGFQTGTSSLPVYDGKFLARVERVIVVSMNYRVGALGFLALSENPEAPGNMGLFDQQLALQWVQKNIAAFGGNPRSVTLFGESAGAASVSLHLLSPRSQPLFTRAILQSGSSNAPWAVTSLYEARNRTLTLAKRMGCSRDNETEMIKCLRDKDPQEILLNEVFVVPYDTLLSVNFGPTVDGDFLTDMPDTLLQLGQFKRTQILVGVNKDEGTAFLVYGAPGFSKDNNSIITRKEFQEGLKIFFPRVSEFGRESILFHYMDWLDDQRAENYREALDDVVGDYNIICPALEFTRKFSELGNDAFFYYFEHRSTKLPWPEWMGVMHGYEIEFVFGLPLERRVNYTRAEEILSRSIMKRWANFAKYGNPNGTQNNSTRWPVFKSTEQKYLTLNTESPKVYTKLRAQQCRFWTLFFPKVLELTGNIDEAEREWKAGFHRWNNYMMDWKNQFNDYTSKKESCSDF

Which “latency times, acquisition trial” value [1] does the source give for `CN1[C@@H]2C[C@@H](OC(=O)[C@H](CO)c3ccccc3)C[C@H]1[C@@H]1O[C@@H]12` [Scopolamine, scopolamine, reference compound] here?
The value was “neither scopolamine, nor 19 nor rivastigmine significantly affected latency times”.

What does the source list for `CC1CCCN(CCCCCCOc2ccccc2-c2ccccc2)C1` (stereo not drawn) [Compound 15, 1-(6-([1,1′-Biphenyl]-2-yloxy)hexyl)-3-methylpiperidine Hydrogen Oxalate]?
inhibition at 1 µM (human MAO B): 16%; inhibition at 10 µM (AChE from electric eel [2]): 24%; IC50 (BuChE from equine serum [3]): 2100 ± 60 nM; Ki [4]: 23 nM

For `CCN(C)C(=O)Oc1cccc([C@H](C)N(C)C)c1` [Rivastigmine, rivastigmine, reference compound], which IC50 [5] is on record?
The IC50 was 370 nM.

What about the “latency time, retention trial” value ([1]; 1.0 mg/kg i.p. before scopolamine 1 mg/kg) of the same molecule?
Its value is 84.6 ± 20.1 s.

What about the “latency time, retention trial” value ([1]; 2.5 mg/kg i.p. before scopolamine 1 mg/kg) of the same molecule?
Its value is 98.7 ± 17.9 s.

What about the “latency times, acquisition trial” value [1] of the same molecule?
The value was “neither scopolamine, nor 19 nor rivastigmine significantly affected latency times”.

With `CC1CCCN(CCCCCCOc2ccc(-c3ccccc3)cc2)C1` (stereo not drawn) [Compound 13, 1-(6-([1,1′-Biphenyl]-4-yloxy)hexyl)-3-methylpiperidine Hydrogen Oxalate] as the molecule, how does the inhibition at 1 µM (human MAO B) read?
Its inhibition at 1 µM is 20%.

And the IC50 (AChE from electric eel [2])?
The IC50 was 5020 ± 90 nM.

And the inhibition at 10 µM (AChE from electric eel [2])?
Its inhibition at 10 µM is over 50%.

And the IC50 (BuChE from equine serum [3])?
Its IC50 is 950 nM.

And the Ki ([4]; [3H]Nα-methylhistamine, HEK293 cells stably expressing human H3R, read-out: hH3R Ki Mean ± SD [CI 95%])?
Its Ki is 146 ± 65.3 nM.

With `CC1CCCN(CCCCCCOc2cccc(-c3ccccc3)c2)C1` (stereo not drawn) [Compound 14, 1-(6-([1,1′-Biphenyl]-3-yloxy)hexyl)-3-methylpiperidine Hydrogen Oxalate] as the molecule, how does the inhibition at 1 µM (human MAO B) read?
Its inhibition at 1 µM is 35%.

What about the IC50 (AChE from electric eel [2]) of the same molecule?
Its IC50 is 4710 ± 130 nM.

What about the inhibition at 10 µM (AChE from electric eel [2]) of the same molecule?
The inhibition at 10 µM was over 50%.

What about the IC50 (BuChE from equine serum [3]) of the same molecule?
Its IC50 is 1520 ± 40 nM.

And the Ki [4]?
Its Ki is 27 nM.

What does the source list for `c1ccc(-c2cccc(OCCCCCN3CCCCC3)c2)cc1` [Compound 7]?
inhibition at 1 µM (human MAO B): 11%; inhibition at 10 µM (AChE from electric eel [2]): 24%; IC50 (BuChE from equine serum [3]): 1290 ± 20 nM

With `c1ccc(-c2ccc(OCCCCCCN3CCCCC3)cc2)cc1` [Compound 8] as the molecule, how does the inhibition at 1 µM (human MAO B) read?
The inhibition at 1 µM was 36%.

What about the inhibition at 10 µM (AChE from electric eel [2]) of the same molecule?
The inhibition at 10 µM was 48%.

What about the IC50 (BuChE from equine serum [3]) of the same molecule?
The IC50 was 1630 ± 50 nM.

With `CC1CCN(CCCCCCOc2ccc(-c3ccccc3)cc2)CC1` [Compound 4] as the molecule, how does the inhibition at 1 µM (human MAO B) read?
Its inhibition at 1 µM is 27%.

And the IC50 (AChE from electric eel [6]; AChE from electric eel, read-out: eeAChE IC50 Mean ± SEM)?
The IC50 was 4460 ± 100 nM.

And the “eeAChE % Inh.” value (AChE from electric eel [6]; at 10 μM)?
Its value is “more than 50%”.

What about the IC50 (BuChE from equine serum [7]) of the same molecule?
Its IC50 is 740 ± 20 nM.

Which inhibition at 1 µM (human MAO B) does the source give for `c1ccc(-c2cccc(OCCCCCN3CCCCCC3)c2)cc1` [Compound 20] here?
The inhibition at 1 µM was 14%.

What about the inhibition at 10 µM (AChE from electric eel [2]) of the same molecule?
The inhibition at 10 µM was 26%.

And the IC50 (BuChE from equine serum [3])?
The IC50 was 470 ± 10 nM.

What does the source list for `CC1CCN(CCCCCOc2cccc(-c3ccccc3)c2)CC1` [Compound 16]?
inhibition at 1 µM (human MAO B): 7%; inhibition at 10 µM (AChE from electric eel [2]): 41%; IC50 (BuChE from equine serum [3]): 1460 ± 30 nM

Which results are given for `c1ccc(-c2ccccc2OCCCCCCN2CCCCCC2)cc1` [Compound 22, 1-(6-([1,1′-Biphenyl]-2-yloxy)hexyl)azepane Hydrogen Oxalate]?
inhibition at 1 µM (human MAO B): 17%; inhibition at 10 µM (AChE from electric eel [2]): 30%; IC50 (BuChE from equine serum [3]): 690 ± 50 nM; Ki [4]: 528 nM
